± gives the standard deviation of the averaged measurements.
Assays:
Assay in all cases: level (log10 ratio to DMSO vehicle control); higher = higher biomarker level / cell amount than vehicle control
[1] = compound: C=C(C)C(=O)OCCC(F)(F)C(F)(F)C(F)(F)C(F)(F)C(F)(F)C(F)(F)F [6:2 Fluorotelomer methacrylate]; conditions: in DMSO
Protocol: (§1)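 BioMAP Diversity Plus panel of 12 human primary cell co-culture systems (3C, 4H, LPS, SAg, BT, BF4T, BE3C, CASM3C, HDF3CGF, KF3CT, MyoF, Mphg). Compounds were added 1 h before stimulation and left for 24 h (MyoF 48 h; BT 72 h for soluble read-outs or 6 d for IgG). Biomarkers were read by ELISA, cytotoxicity by SRB, PBMC viability and proliferation by Alamar Blue. Each well value was divided by the mean of 8 DMSO control wells on the same plate and log10 transformed; duplicate blinded samples were tested at 4 concentrations.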

[2] = compound: C=CC(=O)OCC(F)(F)C(F)(F)C(F)(F)COC(=O)C=C [1H,1H,5H,5H-Perfluoro-1,5-pentanediol diacrylate]; conditions: 6700 nM; in DMSO
Protocol: as §1

[3] = compound: FC(F)(F)C(F)(F)C(F)(F)C(F)(F)C(F)(F)C(F)(F)CC1CO1 [3-(Perfluorohexyl)-1,2-epoxypropane]; conditions: in DMSO
Protocol: as §1

[4] = compound: FC(F)(F)C(F)(F)C(F)(F)CC1CO1 [1H,1H-Heptafluorobutyl epoxide]; conditions: in DMSO
Protocol: as §1

[5] = compound: NC(=O)C(F)(F)C(F)(F)C(F)(F)C(F)F; conditions: in DMSO
Protocol: as §1

[6] = compound: O=S(=O)(O)C(F)(F)C(F)(F)C(F)(F)C(F)(F)C(F)(F)C(F)(F)C(F)(F)C(F)(F)C(F)(F)C(F)(F)F [Sodium perfluorodecanesulfonate]; conditions: in DMSO
Protocol: as §1

[7] = compound: O=S(=O)(O)CCC(F)(F)C(F)(F)C(F)(F)C(F)(F)C(F)(F)C(F)(F)F [6:2 Fluorotelomer sulfonic acid]; conditions: in DMSO
Protocol: as §1

Test System	level (log10) ([1]; 6700 nM)	level (log10) ([1]; 20000 nM)	level (log10) ([1]; 60000 nM)	level (log10) [2]	level (log10) ([3]; 6700 nM)	level (log10) ([3]; 20000 nM)	level (log10) ([3]; 60000 nM)	level (log10) ([4]; 6700 nM)	level (log10) ([4]; 20000 nM)	level (log10) ([4]; 60000 nM)	level (log10) ([5]; 6700 nM)	level (log10) ([5]; 20000 nM)	level (log10) ([5]; 60000 nM)	level (log10) ([6]; 1500 nM)	level (log10) ([6]; 4400 nM)	level (log10) ([6]; 13000 nM)	level (log10) ([6]; 40000 nM)	level (log10) ([7]; 6700 nM)	level (log10) ([7]; 20000 nM)	level (log10) ([7]; 60000 nM)
CASM3C:LDLR	-0.0185 ± 0.026	-0.001 ± 0.025	-0.016 ± 0.0099	-0.004 ± 0.0014	-0.003 ± 0.02	0.0105 ± 0.012	0.025 ± 0.014	-0.007 ± 0.0028	-0.015 ± 0.0057	0.002 ± 0.0099	-0.008	-0.006 ± 0.024	0.031 ± 0.042	0.0155 ± 0.028	-0.015	-0.0425 ± 0.018	-0.0055 ± 0.035	0.009 ± 0.0057	-0.001 ± 0.018	0.011 ± 0.04
BE3C:MMP-1	0.0525 ± 0.0035	0.046 ± 0.0057	0.0375 ± 0.0078	0.0115 ± 0.0078	0.022 ± 0.075	0.0255 ± 0.061	0.0655 ± 0.03	0.003 ± 0.027	0.002 ± 0.055	0.041 ± 0.092	0.003 ± 0.054	-0.001 ± 0.0014	0.024 ± 0.0057	-0.0225 ± 0.053	0.0585 ± 0.059	0.239 ± 0.011	0.153 ± 0.0071	-0.013 ± 0.017	-0.0105 ± 0.018	0.078 ± 0.054
HDF3CGF:MMP-1	0.023 ± 0.0085	0.031 ± 0.0028	0.039 ± 0.0057	-0.3945 ± 0.00071	0.0005 ± 0.0021	0.004 ± 0.0042	0.003 ± 0.0071	0.0265 ± 0.012	0.028 ± 0.0099	0.0355 ± 0.0035	0.0005 ± 0.00071	-0.006 ± 0.0042	0.003 ± 0.0071	-0.0125 ± 0.0092	-0.0145 ± 0.0078	-0.007 ± 0.024	0.027 ± 0.024	-0.015 ± 0.027	-0.039 ± 0.03	-0.036 ± 0.064
4H:CCL26/Eotaxin-3	0.016	0.006 ± 0.048	-0.009 ± 0.05	-0.214 ± 0.037	-0.001 ± 0.011	-0.001 ± 0.0028	0.005 ± 0.0057	0.0055 ± 0.0064	-0.0365 ± 0.025	0.032 ± 0.062	0.0095 ± 0.037	0.0315 ± 0.029	0.0275 ± 0.016	-0.038 ± 0.0085	-0.052 ± 0.0014	-0.0885 ± 0.037	-0.129 ± 0.063	0.017 ± 0.0014	-0.0285 ± 0.023	-0.095 ± 0.018
HDF3CGF:CD106/VCAM-1	-0.0005 ± 0.018	-0.0085 ± 0.0064	-0.0395 ± 0.03	-0.512 ± 0.033	-0.001 ± 0.025	-0.01 ± 0.0057	-0.057 ± 0.016	0.013 ± 0.0099	-0.017 ± 0.0014	-0.04 ± 0.021	-0.0285 ± 0.019	-0.014 ± 0.024	-0.04 ± 0.078	-0.104 ± 0.06	-0.164 ± 0.042	-0.0895 ± 0.049	-0.0215 ± 0.0092	0.034 ± 0.11	0.034 ± 0.093	0.0135 ± 0.064
lMphg:SRB	-0.0065 ± 0.025	-0.0115 ± 0.015	-0.0175 ± 0.00071	0.001 ± 0.0014	-0.012 ± 0.0042	-0.016 ± 0.0071	0.0115 ± 0.005	-0.001 ± 0.0028	0.0025 ± 0.0035	-0.002 ± 0.0085	-0.008 ± 0.0057	-0.007 ± 0.0042	-0.0005 ± 0.018	-0.0075 ± 0.012	-0.0025 ± 0.00071	-0.001 ± 0.0099	-0.011 ± 0.0099	-0.001 ± 0.011	0.0125 ± 0.019	-0.002 ± 0.018
CASM3C:CD87/uPAR	-0.014 ± 0.028	-0.0285 ± 0.023	-0.0355 ± 0.023	-0.0095 ± 0.022	-0.0105 ± 0.023	-0.025 ± 0.013	-0.0165 ± 0.012	-0.023 ± 0.0057	-0.017 ± 0.035	-0.019 ± 0.017	-0.0115 ± 0.015	-0.0035 ± 0.0078	-0.019 ± 0.017	0.0455 ± 0.021	-0.0065 ± 0.03	0.042 ± 0.0042	0.0075 ± 0.015	0.003 ± 0.035	0.0145 ± 0.019	-0.0125 ± 0.012
3C:CD87/uPAR	0.003 ± 0.035	0.004 ± 0.034	0.0195 ± 0.039	0.014 ± 0.034	0.03 ± 0.0085	0.032 ± 0.0085	0.052 ± 0.017	-0.0185 ± 0.026	0 ± 0.021	-0.01 ± 0.0071	-0.0235 ± 0.036	-0.022 ± 0.03	-0.023 ± 0.027	-0.0055 ± 0.047	-0.0275 ± 0.013	-0.009 ± 0.037	-0.222 ± 0.0085	-0.0235 ± 0.07	-0.0245 ± 0.023	-0.0015 ± 0.015
4H:CCL2/MCP-1	-0.009 ± 0.0014	0.007 ± 0.0085	-0.006 ± 0.0057	-0.058 ± 0.0028	0.03 ± 0.0099	-0.0175 ± 0.0064	0.0125 ± 0.019	-0.033 ± 0.013	-0.018 ± 0.025	0.025 ± 0.042	-0.0155 ± 0.032	-0.039 ± 0.031	0.029 ± 0.04	-0.0285 ± 0.0078	-0.045 ± 0.0057	-0.0725 ± 0.028	-0.05 ± 0.0057	-0.0135 ± 0.056	0.0065 ± 0.029	-0.02 ± 0.011
CASM3C:SRB	0.001 ± 0.0057	-0.0035 ± 0.0021	0.002 ± 0.0042	-0.0025 ± 0.0021	0 ± 0.0085	-0.009 ± 0.0014	0.0025 ± 0.00071	-0.006 ± 0.014	0.0055 ± 0.0035	-0.0035 ± 0.005	0.0025 ± 0.00071	-0.0115 ± 0.005	-0.0085 ± 0.016	-0.0035 ± 0.011	-0.005 ± 0.0085	0 ± 0.0028	-0.007 ± 0.0085	-0.004 ± 0.0028	0.0025 ± 0.0021	0.001 ± 0.0085
3C:Proliferation	0.0005 ± 0.028	-0.003 ± 0.089	-0.013 ± 0.0085	-0.379 ± 0.12	-0.013 ± 0.0042	-0.0055 ± 0.054	-0.0375 ± 0.035	-0.0245 ± 0.028	-0.015 ± 0.033	0.004 ± 0.035	-0.0385 ± 0.049	-0.038 ± 0.061	-0.03 ± 0.031	-0.0815 ± 0.013	-0.056 ± 0.017	-0.038 ± 0.02	-0.229 ± 0.011	0.0055 ± 0.0021	0.012 ± 0.027	0.0305 ± 0.039
lMphg:M-CSF	0.0215 ± 0.0064	-0.016 ± 0.0071	-0.0125 ± 0.025	-0.0245 ± 0.0035	-0.01 ± 0.0071	-0.0305 ± 0.0078	-0.0145 ± 0.021	0.0065 ± 0.013	-0.003 ± 0.011	0.003 ± 0.04	-0.0135 ± 0.0092	-0.018 ± 0.025	-0.0175 ± 0.015	-0.0215 ± 0.0035	-0.0255 ± 0.03	-0.013 ± 0.021	0.0255 ± 0.028	0.0045 ± 0.0078	-0.023 ± 0.028	-0.0145 ± 0.0064
